In ChEMBL document CHEMBL1201862, “PubChem BioAssay data set” (2004):
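In this assay, cells in 96-well plates receive the compound at five concentrations for 48 hours. Endpoints are linearly interpolated between the surrounding concentrations. GI50 marks 50% less growth.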 Activity calls are given as the source filed them. Rule as the data show it: active = GI50 up to about 1.1 µM and inactive = higher.

Assays:
Test in all cases: inhibition of tumour cell growth, NCI panel, 48 h
RXF 393 = tested on: RXF 393
TK-10 = tested on: TK-10
LOX IMVI = tested on: LOX IMVI
HL-60 = tested on: HL-60
MOLT-4 = tested on: MOLT-4
KM12 = tested on: KM12
NCI-H226 = tested on: NCI-H226
IGROV-1 = tested on: IGROV-1
SNB-78 = tested on: SNB-78
SN12C = tested on: SN12C
LXFL 529 = tested on: LXFL 529
NCI-H23 = tested on: NCI-H23
SW-620 = tested on: SW-620
RPMI-8226 = tested on: RPMI-8226
UACC-62 = tested on: UACC-62
XF498 = tested on: XF498
786-0 = tested on: 786-0
DMS-114 = tested on: DMS-114
KM-20L2 = tested on: KM-20L2
HT-29 = tested on: HT-29
COLO 205 = tested on: COLO 205
DMS-273 = tested on: DMS-273
SK-OV-3 = tested on: SK-OV-3
M19-MEL = tested on: M19-MEL
M14 = tested on: M14
DLD-1 = tested on: DLD-1
OVCAR-8 = tested on: OVCAR-8
HOP-62 = tested on: HOP-62
OVCAR-4 = tested on: OVCAR-4
SK-MEL-28 = tested on: SK-MEL-28
SF-539 = tested on: SF-539
CCRF-CEM = tested on: CCRF-CEM
A549 = tested on: A549
HOP-18 = tested on: HOP-18
NCI-H522 = tested on: NCI-H522
SNB-19 = tested on: SNB-19
SNB-75 = tested on: SNB-75
HCT-116 = tested on: HCT-116
NCI-H460 = tested on: NCI-H460
K562 = tested on: K562
SF-268 = tested on: SF-268
SF-295 = tested on: SF-295
OVCAR-3 = tested on: OVCAR-3
U-251 = tested on: U-251
EKVX = tested on: EKVX
SK-MEL-5 = tested on: SK-MEL-5
HCC 2998 = tested on: HCC 2998
HCT-15 = tested on: HCT-15
ACHN = tested on: ACHN
RXF 631 = tested on: RXF 631
UO-31 = tested on: UO-31
UACC-257 = tested on: UACC-257
SR = tested on: SR
T47D = tested on: T47D
DU-145 = tested on: DU-145
PC-3 = tested on: PC-3
MDA-N = tested on: MDA-N
HOP-92 = tested on: HOP-92
NCI/ADR-RES = tested on: NCI/ADR-RES
MDA-MB-435 = tested on: MDA-MB-435
MDA-MB-231 = tested on: MDA-MB-231
CAKI-1 = tested on: CAKI-1
A498 = tested on: A498
Hs-578T = tested on: Hs-578T
BT-549 = tested on: BT-549
MCF7 = tested on: MCF7
OVCAR-5 = tested on: OVCAR-5
Malme-3M = tested on: Malme-3M
SK-MEL-2 = tested on: SK-MEL-2

## CCOC(=O)c1nc(-c2ccccc2)oc1OCC
RXF 393
  GI50: > 100 µM (inactive)
TK-10
  GI50: > 100 µM (inactive)
LOX IMVI
  GI50: 36.8 µM (inactive)
HL-60
  GI50: 49.9 µM (inactive)
MOLT-4
  GI50: 60.7 µM (inactive)
KM12
  GI50: > 100 µM (inactive)
NCI-H226
  GI50: > 100 µM (inactive)
IGROV-1
  GI50: > 100 µM (inactive)
SNB-78
  GI50: > 100 µM (inactive)
SN12C
  GI50: > 100 µM (inactive)
LXFL 529
  GI50: > 100 µM (inactive)
NCI-H23
  GI50: > 100 µM (inactive)
SW-620
  GI50: > 100 µM (inactive)
RPMI-8226
  GI50: 92.7 µM (inactive)
UACC-62
  GI50: > 100 µM (inactive)
XF498
  GI50: 21.2 µM (inactive)
786-0
  GI50: > 100 µM (inactive)
DMS-114
  GI50: > 100 µM (inactive)
KM-20L2
  GI50: > 100 µM (inactive)
HT-29
  GI50: > 100 µM (inactive)
COLO 205
  GI50: > 100 µM (inactive)
DMS-273
  GI50: 90.2 µM (inactive)
SK-OV-3
  GI50: > 100 µM (inactive)
M19-MEL
  GI50: > 100 µM (inactive)
M14
  GI50: > 100 µM (inactive)
DLD-1
  GI50: > 100 µM (inactive)
OVCAR-8
  GI50: > 100 µM (inactive)
HOP-62
  GI50: > 100 µM (inactive)
OVCAR-4
  GI50: > 100 µM (inactive)
SK-MEL-28
  GI50: > 100 µM (inactive)
SF-539
  GI50: > 100 µM (inactive)
CCRF-CEM
  GI50: > 100 µM (inactive)
A549
  GI50: > 100 µM (inactive)
HOP-18
  GI50: > 100 µM (inactive)
NCI-H522
  GI50: > 100 µM (inactive)
SNB-19
  GI50: > 100 µM (inactive)
SNB-75
  GI50: > 100 µM (inactive)
HCT-116
  GI50: > 100 µM (inactive)
NCI-H460
  GI50: > 100 µM (inactive)
K562
  GI50: 74.1 µM (inactive)
SF-268
  GI50: > 100 µM (inactive)
SF-295
  GI50: > 100 µM (inactive)
OVCAR-3
  GI50: > 100 µM (inactive)
U-251
  GI50: > 100 µM (inactive)
EKVX
  GI50: 21 µM (inactive)
SK-MEL-5
  GI50: > 100 µM (inactive)
HCC 2998
  GI50: > 100 µM (inactive)

## SC1=NC2(CCCCCC2)NN1c1ccccc1
HCT-15
  GI50: 0.168 µM
TK-10
  GI50: > 28.6 µM (inactive)
ACHN
  GI50: 0.0785 µM (active)
LOX IMVI
  GI50: 0.82 µM (active)
RXF 631
  GI50: 2.81 µM (inactive)
HL-60
  GI50: 0.0867 µM (active)
MOLT-4
  GI50: 0.891 µM (active)
KM12
  GI50: 0.291 µM (active)
NCI-H226
  GI50: > 100 µM (inactive)
IGROV-1
  GI50: > 39.4 µM (inactive)
UO-31
  GI50: 0.168 µM (active)
SN12C
  GI50: > 27.3 µM (inactive)
LXFL 529
  GI50: 0.0407 µM (active)
NCI-H23
  GI50: 9.23 µM (inactive)
UACC-257
  GI50: 23.9 µM (inactive)
SR
  GI50: 28.8 µM (inactive)
SW-620
  GI50: 1.78 µM (inactive)
RPMI-8226
  GI50: 0.769 µM (active)
UACC-62
  GI50: 0.0208 µM (active)
T47D
  GI50: 0.597 µM (active)
786-0
  GI50: > 30.6 µM (inactive)
DU-145
  GI50: 0.0708 µM (active)
PC-3
  GI50: 29.6 µM (inactive)
DMS-114
  GI50: 0.273 µM (active)
MDA-N
  GI50: 3.09 µM (inactive)
HT-29
  GI50: 1.35 µM (inactive)
COLO 205
  GI50: 0.104 µM (active)
DMS-273
  GI50: 0.166 µM (active)
SK-OV-3
  GI50: > 100 µM (inactive)
M14
  GI50: 1.61 µM (inactive)
HOP-92
  GI50: > 100 µM (inactive)
DLD-1
  GI50: 0.34 µM (active)
NCI/ADR-RES
  GI50: > 100 µM (inactive)
OVCAR-8
  GI50: 15.5 µM (inactive)
MDA-MB-435
  GI50: 3.61 µM (inactive)
MDA-MB-231
  GI50: > 100 µM (inactive)
CAKI-1
  GI50: 0.218 µM (active)
A498
  GI50: 50.5 µM (inactive)
OVCAR-4
  GI50: 2.16 µM (inactive)
Hs-578T
  GI50: > 100 µM (inactive)
SK-MEL-28
  GI50: 1.11 µM (active)
CCRF-CEM
  GI50: 0.0664 µM (active)
A549
  GI50: 0.206 µM (active)
HOP-18
  GI50: > 100 µM (inactive)
BT-549
  GI50: > 100 µM (inactive)
NCI-H522
  GI50: > 100 µM (inactive)
MCF7
  GI50: 1.36 µM (inactive)
OVCAR-5
  GI50: 1.91 µM (inactive)
SNB-19
  GI50: > 41 µM (inactive)
SNB-75
  GI50: > 66.8 µM (inactive)
Malme-3M
  GI50: 16.4 µM (inactive)
NCI-H460
  GI50: 0.979 µM (active)
K562
  GI50: 0.019 µM (active)
SF-268
  GI50: 0.184 µM (active)
SF-295
  GI50: 0.0471 µM (active)
OVCAR-3
  GI50: 9.91 µM (inactive)
EKVX
  GI50: 36.5 µM (inactive)
SK-MEL-5
  GI50: 93.3 µM (inactive)
HCC 2998
  GI50: 0.386 µM (active)

## CN1/C(=N\c2ccccc2)S/C1=N/c1ccccc1
HCT-15
  GI50: 90.8 µM
TK-10
  GI50: > 100 µM (inactive)
ACHN
  GI50: 70.6 µM (inactive)
LOX IMVI
  GI50: 74.6 µM (inactive)
HL-60
  GI50: 27.2 µM (inactive)
MOLT-4
  GI50: 69.3 µM (inactive)
KM12
  GI50: 52.2 µM (inactive)
NCI-H226
  GI50: > 100 µM (inactive)
IGROV-1
  GI50: > 100 µM (inactive)
UO-31
  GI50: > 100 µM (inactive)
SNB-78
  GI50: > 100 µM (inactive)
LXFL 529
  GI50: 82.2 µM (inactive)
NCI-H23
  GI50: 40 µM (inactive)
UACC-257
  GI50: > 100 µM (inactive)
SR
  GI50: 95.7 µM (inactive)
SW-620
  GI50: > 100 µM (inactive)
RPMI-8226
  GI50: 39.5 µM (inactive)
UACC-62
  GI50: > 100 µM (inactive)
XF498
  GI50: 9.57 µM (inactive)
786-0
  GI50: > 100 µM (inactive)
SK-MEL-2
  GI50: 27.2 µM (inactive)
DMS-114
  GI50: 23.6 µM (inactive)
HT-29
  GI50: 55.5 µM (inactive)
COLO 205
  GI50: 61 µM (inactive)
DMS-273
  GI50: 87.3 µM (inactive)
SK-OV-3
  GI50: > 100 µM (inactive)
M19-MEL
  GI50: 21.8 µM (inactive)
M14
  GI50: 72.1 µM (inactive)
HOP-92
  GI50: 10.2 µM (inactive)
DLD-1
  GI50: 23.4 µM (inactive)
OVCAR-8
  GI50: > 100 µM (inactive)
HOP-62
  GI50: > 100 µM (inactive)
A498
  GI50: 96.4 µM (inactive)
OVCAR-4
  GI50: 59.7 µM (inactive)
SK-MEL-28
  GI50: > 100 µM (inactive)
SF-539
  GI50: > 100 µM (inactive)
CCRF-CEM
  GI50: 69.3 µM (inactive)
A549
  GI50: 86.1 µM (inactive)
HOP-18
  GI50: 69 µM (inactive)
NCI-H522
  GI50: 14.4 µM (inactive)
OVCAR-5
  GI50: > 100 µM (inactive)
SNB-19
  GI50: > 100 µM (inactive)
SNB-75
  GI50: 6.62 µM (inactive)
Malme-3M
  GI50: 23.1 µM (inactive)
HCT-116
  GI50: 47.6 µM (inactive)
NCI-H460
  GI50: > 100 µM (inactive)
K562
  GI50: 56.5 µM (inactive)
SF-268
  GI50: > 100 µM (inactive)
SF-295
  GI50: > 100 µM (inactive)
OVCAR-3
  GI50: 34.1 µM (inactive)
U-251
  GI50: > 100 µM (inactive)
EKVX
  GI50: 60.1 µM (inactive)
SK-MEL-5
  GI50: 28.9 µM (inactive)
HCC 2998
  GI50: 66.8 µM (inactive)
